From patent US20240360137A1 (Novartis AG, priority 2023, published 2024)

Key:
Test in all cases: CDKi biochemical assay (TR-FRET, phosphorylation of S780 on RB1 peptide)
CDK1/CyclinB1 = CDK1/CyclinB1 (Homo sapiens, UniProt P06493); conditions: CDK1/CyclinB1 10 pM, 1 mM ATP, 60 min at 25° C.
Description: (§1) Biochemical assays measured the inhibitory effects of compounds in this disclosure on the enzymatic activity of CDK enzyme in complex with Cyclin protein partner by phosphorylation of Ser-780 (S780) on retinoblastoma protein peptide (RB1) in the presence of 1 mM adenosime-5-triphosphate (ATP) and varying concentration of test compound in 20 mM 2-[4-(2-hydroxyethyl)paperazin-1-yl] ethanesulfonic acid (HEPES), pH 7.5, 10 mM MgCl2, 1 mM dithiothreitol (DTT), 0.01% bovine serum albumin (BSA), 0.005% Tween 20. Total Reaction volume of 10 μL proceeded for 60 minutes at room temperature (25° C.) and were quenched with 5 μL of 200 mM 2′,2″,2′″-(Ethane-1,2-diyldinitrilo)tetraacetic acid (EDTA) pH 8.0 before addition of 5 μL detection solution containing 100 nM fluorophore conjugate streptavidin allophycocyanin (SA-APC), 2 nM Europium labelled Anti-p-RB(S780)-K (Perkin Elmer, 64CUSKAY), 50 mM HEPES, pH 7.5, 400 mM potassium fluoride (KF), 0.1% BSA, and 0.01% Tween-20. Phosphorylation of S780 on RB1 peptide (His-MBP-RB1[773-924]-SEQ ID NO. 9) was detected by TR-FRET after 3 hour incubation with detection solution. Percent phosphorylation activity was plotted against log concentration of compound to generate an apparent ICSO. The following CDK enzyme in complex with different cyclin proteins and protein peptide substrate were used in these assays: • CDK1/CyclinB1, Avi-tag, 10 pM used in the assay • CDK2/CyclinE1, Avi-tag, 100 pM used in the assay • CDK4/cyclinD1, Avi-tag, 20 pM used in the assay • CDK6/cyclinD3, Avi-tag, 10 pM used in the assay • His-MBP-RB1[773-924], Avi-tag, 200 nM used in the assay
(§2) The avi-tag is a C-terminal fusion on the CDK1/2/4/6 sequence in each of these two-protein complexes. The known avi-tag sequence, […] (SEQ ID NO. 10), is a substrate for E. coli biotin ligase BirA, which covalently attaches a biotin molecule to the e-amino group of the lysine in that sequence. The avi-tag is attached with an 8 amino-acid linker sequence GGSGGGGS (SEQ ID NO. 11), resulting in the full C-terminal fusion
(§3) Recombinant proteins were generated as N-terminal fusions of 9× His tag—E. coli Maltose Binding Protein (MBP), with or without a C-terminal Avi-tag.^1 CDK2 and His-MBP-RB1[773-924]-c-avi were expressed in E. coli while the remainder were expressed in Sf21 insect cells. Genes were synthesized commercially (GeneArt and Twist Bioscience) using codon frequencies appropriate to the respective organisms and proprietary codon optimization strategies, and inserted into pET 24 (E. coli) or pDEST8 (insect) vectors already containing the 9× His-MBP tag using standard methods of PCR and Gibson Assembly.^2 E. coli expression was performed by auto-induction overnight at 18 or 21 C. For insect cell expression, bacmids and viruses were created,^3 then used to synchronously infect Sf21 insect cells with harvest at 40-48 hrs., per standard protocols.^4
(§4) For CDK2/Cyclin E and CDK1/Cyclin B, the CDK and Cyclin proteins were expressed separately, lysed by sonication and clarified by centrifugation. The fusion proteins were each separately purified by immobilized metal ion affinity chromatography (IMAC) (5 mL HisTrap, Cytiva) and Superdex 200 26/60 (Cytiva) size-exclusion and complexed in vitro (1-3 hrs incubation at room temperature) prior to tag cleavage by recombinant his-tagged Tobacco Etch Virus protease or his-tagged Human rhinovirus 3C protease, as appropriate. The cleaved complex is further purified by Superdex 75 26/60 (Cytiva) size-exclusion followed by reverse-IMAC, in which the complex is in the column flow-through and residual His-MBP and his-tagged proteases are retained. The final complex is concentrated as desired by centrifugal concentration (Amicon Ultra 10,000 Da MWCO 15 mL concentrators, Millipore).
(§5) For the is-MBP-RB1[773-924]-c-avi, the protein was lysed by sonication and clarified by centrifugation. […]

CDK4/cyclinD1 = CDK4/cyclinD1 (Homo sapiens, UniProt P11802); conditions: CDK4/cyclinD1 20 pM, 1 mM ATP, 60 min at 25° C.
Description: as §1, §2, §3
(§6) For CDK4/Cyclin D1 and CDK6/Cyclin D3, the complexes were expressed by simultaneous co-infection of insect cells by three separate viruses including one expressing untagged E. coli BirA. The expression media is supplemented with 50 uM d-biotin. The resulting protein complexes purified similarly. After lysis and clarification, the complex is purified by IMAC, Superdex 200 26/60 size exclusion, tag cleavage by human rhinovirus 3C protease, Superdex 75 26/60 size exclusion and reverse IMAC. BirA is typically not retained on the first IMAC, and excess CDK or Cyclin monomer is separated on the Superdex 200 size exclusion. Cleaved His-MBP and remaining monomer are removed by the Superdex 75 size exclusion and the reverse IMAC step. Final concentration by centrifugal concentrators as described above.
as §5

CDK6/cyclinD3 = CDK6/cyclinD3 (Homo sapiens, UniProt Q00534); conditions: CDK6/cyclinD3 10 pM, 1 mM ATP, 60 min at 25° C.
Description: as §1, §2, §3, §6, §5

CDK2/CyclinE1 = CDK2/CyclinE1 (Homo sapiens, UniProt P24941); conditions: CDK2/CyclinE1 100 pM, 1 mM ATP, 60 min at 25° C.
Description: as §1, §2, §3, §4
For E. coli expressed CDK2 and His-MBP-RB1[773-924]-c-avi, the proteins were biotinylated in vitro after the first IMAC step.^1
as §5

Row | IC50 (CDK1/CyclinB1) | IC50 (CDK4/cyclinD1) | IC50 (CDK6/cyclinD3) | IC50 (CDK2/CyclinE1) | Compound
1 | 1550 nM | ≥ 10000 nM | ≥ 10000 nM | 30 nM | O=C1N([C@@H]2CCC[C@@H](O)C2)c2nc(Nc3c[nH]nc3C3CC3)ncc2C12CC2 [Example 14, 2′-((3-cyclopropyl-1H-pyrazol-4-yl)amino)-7′-((1R,3R)-3-hydroxycyclohexyl)spiro[cyclopropane-1,5′-pyrrolo[2,3-d]pyrimidin]-6′(7′H)-one]
2 | 3720 nM | ≥ 10000 nM | ≥ 10000 nM | 39 nM | O=C1N([C@@H]2CCC[C@@H](O)C2)c2nc(Nc3c[nH]nc3C(F)(F)F)ncc2C12CC2 [Example 15, 7′-((1R,3R)-3-hydroxycyclohexyl)-2′-((3-(trifluoromethyl)-1H-pyrazol-4-yl)amino)spiro[cyclopropane-1,5′-pyrrolo[2,3-d]pyrimidin]-6′(7′H)-one]
3 | 2360 nM | 1230 nM | 1800 nM | 49 nM | COCCn1cc(Nc2ncc3c(n2)N([C@@H]2CCC[C@@H](O)C2)C(=O)C32CC2)cn1 [Example 16, 7′-((1R,3R)-3-hydroxycyclohexyl)-2′-((1-(2-methoxyethyl)-1H-pyrazol-4-yl)amino)spiro[cyclopropane-1,5′-pyrrolo[2,3-d]pyrimidin]-6′(7′H)-one]
4 | 4490 nM | ≥ 10000 nM | ≥ 10000 nM | 41 nM | Cc1n[nH]cc1Nc1ncc2c(n1)N([C@@H]1CCCC[C@@H](O)C1)C(=O)C21CC1 [Example 17, 7′-(3-hydroxycycloheptyl)-2′-((3-methyl-1H-pyrazol-4-yl)amino)spiro[cyclopropane-1,5′-pyrrolo[2,3-d]pyrimidin]-6′(7′H)-one]
5 | 4120 nM | 7580 nM | 9160 nM | 44 nM | O=C1N([C@@H]2CCCC[C@@H](O)C2)c2nc(Nc3c[nH]nc3Cl)ncc2C12CC2 [Example 19, 2′-((3-chloro-1H-pyrazol-4-yl)amino)-7′-((1R,3R)-3-hydroxycycloheptyl)spiro[cyclopropane-1,5′-pyrrolo[2,3-d]pyrimidin]-6′(7′H)-one]
6 | 660 nM | 2160 nM | 2660 nM | 8 nM | N#Cc1n[nH]cc1Nc1ncc2c(n1)N([C@@H]1CCC[C@@H](O)C1)C(=O)C21CC1 [Example 20, 4-((7′-((1R,3R)-3-hydroxycyclohexyl)-6′-oxo-6′,7′-dihydrospiro[cyclopropane-1,5′-pyrrolo[2,3-d]pyrimidin]-2′-yl)amino)-1H-pyrazole-3-carbonitrile]
7 | 2500 nM | 2260 nM | 4460 nM | 17 nM | COCc1n[nH]cc1Nc1ncc2c(n1)N([C@@H]1CCC[C@@H](O)C1)C(=O)C21CC1 [Example 21, 7′-((1R,3R)-3-hydroxycyclohexyl)-2′-((3-(methoxymethyl)-1H-pyrazol-4-yl)amino)spiro[cyclopropane-1,5′-pyrrolo[2,3-d]pyrimidin]-6′(7′H)-one]
8 | 2960 nM | 5260 nM | 8120 nM | 34 nM | COCCOc1n[nH]cc1Nc1ncc2c(n1)N([C@@H]1CCC[C@@H](O)C1)C(=O)C21CC1 [Example 22, 7′-((1R,3R)-3-hydroxycyclohexyl)-2′-((3-(2-methoxyethoxy)-1H-pyrazol-4-yl)amino)spiro[cyclopropane-1,5′-pyrrolo[2,3-d]pyrimidin]-6′(7′H)-one]
9 | 2430 nM | 9450 nM | ≥ 10000 nM | 15 nM | CCOc1n[nH]cc1Nc1ncc2c(n1)N([C@@H]1CCC[C@@H](O)C1)C(=O)C21CC1 [Example 23, 2′-((3-ethoxy-1H-pyrazol-4-yl)amino)-7′-((1R,3R)-3-hydroxycyclohexyl)spiro[cyclopropane-1,5′-pyrrolo[2,3-d]pyrimidin]-6′(7′H)-one]
10 | 2020 nM | 3910 nM | ≥ 10000 nM | 12 nM | O=C1N([C@@H]2CCC[C@@H](O)C2)c2nc(Nc3c[nH]nc3O[C@@H]3COC[C@H]3F)ncc2C12CC2 [Example 24, 2′-((3-(((3R,4R)-4-fluorotetrahydrofuran-3-yl)oxy)-1H-pyrazol-4-yl)amino)-7′-((1R,3R)-3-hydroxycyclohexyl)spiro[cyclopropane-1,5′-pyrrolo[2,3-d]pyrimidin]-6′(7′H)-one]
11 | 2440 nM | ≥ 10000 nM | ≥ 10000 nM | 24 nM | O=C1N([C@@H]2CCC[C@@H](O)C2)c2nc(Nc3c[nH]nc3O[C@H]3COC[C@@H]3F)ncc2C12CC2 [Example 25, 2′-((3-(((3S,4S)-4-fluorotetrahydrofuran-3-yl)oxy)-1H-pyrazol-4-yl)amino)-7′-((1R,3R)-3-hydroxycyclohexyl)spiro[cyclopropane-1,5′-pyrrolo[2,3-d]pyrimidin]-6′(7′H)-one]
12 | ≥ 10000 nM | 5350 nM | 8500 nM | 59 nM | O=C1N([C@@H]2CCC[C@@H](O)C2)c2nc(Nc3c[nH]nc3O[C@@H]3COC[C@@H]3F)ncc2C12CC2 [Example 26, 2′-((3-(((3R,4S)-4-fluorotetrahydrofuran-3-yl)oxy)-1H-pyrazol-4-yl)amino)-7′-((1R,3R)-3-hydroxycyclohexyl)spiro[cyclopropane-1,5′-pyrrolo[2,3-d]pyrimidin]-6′(7′H)-one]
13 | 1920 nM | 1280 nM | 3180 nM | 11 nM | O=C1N([C@@H]2CCC[C@@H](O)C2)c2nc(Nc3c[nH]nc3O[C@H]3COC[C@H]3F)ncc2C12CC2 [Example 27, 2′-((3-(((3S,4R)-4-fluorotetrahydrofuran-3-yl)oxy)-1H-pyrazol-4-yl)amino)-7′-((1R,3R)-3-hydroxycyclohexyl)spiro[cyclopropane-1,5′-pyrrolo[2,3-d]pyrimidin]-6′(7′H)-one]
14 | 1180 nM | 2120 nM | 2540 nM | 11 nM | O=C1N([C@@H]2CCC[C@@H](O)C2)c2nc(Nc3c[nH]nc3-c3cnn4ccccc34)ncc2C12CC2 [Example 28, 7′-((1R,3R)-3-hydroxycyclohexyl)-2′-((3-(pyrazolo[1,5-a]pyridin-3-yl)-1H-pyrazol-4-yl)amino)spiro[cyclopropane-1,5′-pyrrolo[2,3-d]pyrimidin]-6′(7′H)-one]
